From EPA's ToxValDB 9.5 (doi:10.2903/j.efsa.2006.78r)

Assays:
Typhlodromus pyri = assay: LR50; higher = less toxic; settings: not reported; mortality
Rattus norvegicus = settings: oral, histopathology: nonneoplastic
Daphnia magna = settings: chronic/long-term; duration: 21 days
Cucumis sativus = settings: chronic/long-term; other
Apis mellifera = settings: acute; duration: 48 hours; oral; unspecified; mortality
[1] = acute, oral, unspecified, mortality

CCCOC(=O)NCCCN(C)C.Cl [Propamocarb hydrochloride]
LR50 (Typhlodromus pyri): > 360 g/ha | LD50 (Bird; [1]): > 1840 mg/kg-day | NOEC (Bird; reproductive): 105 mg/kg-day | LC50 (Bird; short-term, oral, feed, mortality): > 962 mg/kg-day | LC50 (Lepomis macrochirus; acute, duration: 96 hours, mortality): > 92 µg/mL | NOEC (Lepomis macrochirus; chronic/long-term, duration: 32 days): > 6.3 mg/L | NOAEL (Rattus norvegicus; chronic, duration: 52 weeks, diet, F): 29 mg/kg-day | NOAEL (Rattus norvegicus; short-term, duration: 28 days, gavage): 100 mg/kg-day | NOEC (Daphnia magna): 12.3 mg/L | NOEC (Cucumis sativus): 9180 g/ha | LD50 (Apis mellifera): > 84 µg/piece | LC50 (Tagia sp.; acute, duration: 14 days, mortality): > 660 mg/kg | NOEC (Tagia sp.; chronic/long-term, duration: 56 days, reproduction): 362 mg/kg | LD50 [1]: > 1330 mg/kg-day | LEC (chronic/long-term): 104 mg/kg-day
